From ChEMBL document CHEMBL1201862, “PubChem BioAssay data set” (2004)
Activity calls are given as the source filed them.

Tests used:
Cytochrome P450 3A4 [1] = molecular target: T1, Cytochrome P450 3A4 (Homo sapiens, UniProt P08684); settings: Potency
[2] = molecular target: Induced myeloid leukemia cell differentiation protein Mcl-1 (Homo sapiens, UniProt Q07820); format: functional
Vero = assay: cells; format: functional, Chlorocebus sabaeus; settings: Chlorocebus sabaeus, Vero
[3] = molecular target: T2, Voltage-gated N-type calcium channel alpha-1B subunit/Amyloid beta A4 precursor protein-binding family A member 1 (Homo sapiens, UniProt Q00975+Q02410); format: protein assay
[4] = molecular target: T2, Voltage-gated N-type calcium channel alpha-1B subunit/Amyloid beta A4 precursor protein-binding family A member 1; format: protein assay; remark: listed apart in the source
[5] = viability of uninfected HEp-2 cells – cell-based, HTS, cytotoxicity control for RSV inhibitor project, dose response (AID 2410); format: functional; settings: human respiratory syncytial virus
[6] = tested on: Streptococcus sp. 'group A'; assay: Streptococcus pyogenes SK(-)GAS viability under kanamycin – luminescence, BacTiterGlo, confirmation, counter-screen for streptokinase expression inhibitor project, dose response (AID 1900); format: functional, organism-based
Streptokinase A = molecular target: T3, Streptokinase A (Streptococcus pyogenes serotype M1, UniProt P10520); assay: viability-normalized secreted streptokinase activity reduction – plasminogen activation absorbance, OD405, dose response (AID 1914); format: functional, Streptococcus pyogenes M1 GAS;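 further: secreted streptokinase activity via plasminogen activation per viability signal from cell pellet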
T3 sequence (P10520 whole entry): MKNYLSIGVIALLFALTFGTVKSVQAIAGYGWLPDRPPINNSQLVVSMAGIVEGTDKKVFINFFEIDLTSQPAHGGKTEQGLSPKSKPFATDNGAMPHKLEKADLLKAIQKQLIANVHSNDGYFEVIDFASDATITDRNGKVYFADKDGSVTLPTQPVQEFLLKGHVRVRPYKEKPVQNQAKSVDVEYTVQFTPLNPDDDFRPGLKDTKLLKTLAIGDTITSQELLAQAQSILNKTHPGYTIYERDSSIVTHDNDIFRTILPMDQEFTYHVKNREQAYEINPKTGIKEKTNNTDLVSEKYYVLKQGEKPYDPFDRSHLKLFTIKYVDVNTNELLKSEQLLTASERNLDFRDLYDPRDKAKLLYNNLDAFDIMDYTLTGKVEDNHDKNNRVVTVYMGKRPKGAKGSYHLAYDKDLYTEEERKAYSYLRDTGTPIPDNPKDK

[7] = molecular target: T4, Calpain-2 catalytic subunit (Sus scrofa, UniProt P43367); assay: m-calpain protease blockers, concentration series – biochemical, fluorogenic peptide substrate, dose response (AID 1420); format: functional
T4 sequence (P43367 whole entry): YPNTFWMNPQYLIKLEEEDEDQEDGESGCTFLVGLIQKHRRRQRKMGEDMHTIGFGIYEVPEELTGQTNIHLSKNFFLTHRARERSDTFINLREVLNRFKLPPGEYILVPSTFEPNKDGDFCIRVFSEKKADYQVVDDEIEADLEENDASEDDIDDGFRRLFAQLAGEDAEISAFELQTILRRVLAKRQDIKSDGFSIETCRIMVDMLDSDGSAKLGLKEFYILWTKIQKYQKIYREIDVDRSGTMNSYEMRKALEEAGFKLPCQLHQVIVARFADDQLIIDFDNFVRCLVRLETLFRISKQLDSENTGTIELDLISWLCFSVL

Streptococcus = assay: GAS UMAA2166 growth inhibition – luminescence, BacTiterGlo, counter-screen for streptokinase expression inhibitor project, dose response (AID 1915); format: functional, organism-based;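 further: potency for reduction of bacterial viability or growth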
Cytochrome P450 2C19 = Cytochrome P450 2C19 (Homo sapiens, UniProt P33261); assay: Cytochrome panel assay with activity outcomes. Panel member name: p450-cyp2c19 Compounds with AC50 equal or less than 10 uM are considered active; format: functional
Cytochrome P450 3A4 [8] = molecular target: T1, Cytochrome P450 3A4
Cytochrome P450 2D6 = Cytochrome P450 2D6 (Homo sapiens, UniProt P10635);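 further: CYP2D6 member of a cytochrome P450 panel assay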
Cytochrome P450 2C9 = Cytochrome P450 2C9 (Homo sapiens, UniProt P11712)
[9] = Luminescence Cell-Based Dose Retest to Confirm Inhibitors of Cancer Stem Cells. [Related pubchem assays (depositor defined):AID2717, AID2721]; format: functional; settings: Homo sapiens
[10] = molecular target: T5, Short transient receptor potential channel 4 (Mus musculus, UniProt Q9QUQ5); assay: block of DAMGO-driven TRPC4 calcium entry – cell-based, HEK293 TRPC4/mu-opioid, Fluo-4 calcium, dose response (AID 434942); format: functional;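 further: potency of inhibitors blocking the TRPC4 calcium response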
T5 sequence (Q9QUQ5 whole entry): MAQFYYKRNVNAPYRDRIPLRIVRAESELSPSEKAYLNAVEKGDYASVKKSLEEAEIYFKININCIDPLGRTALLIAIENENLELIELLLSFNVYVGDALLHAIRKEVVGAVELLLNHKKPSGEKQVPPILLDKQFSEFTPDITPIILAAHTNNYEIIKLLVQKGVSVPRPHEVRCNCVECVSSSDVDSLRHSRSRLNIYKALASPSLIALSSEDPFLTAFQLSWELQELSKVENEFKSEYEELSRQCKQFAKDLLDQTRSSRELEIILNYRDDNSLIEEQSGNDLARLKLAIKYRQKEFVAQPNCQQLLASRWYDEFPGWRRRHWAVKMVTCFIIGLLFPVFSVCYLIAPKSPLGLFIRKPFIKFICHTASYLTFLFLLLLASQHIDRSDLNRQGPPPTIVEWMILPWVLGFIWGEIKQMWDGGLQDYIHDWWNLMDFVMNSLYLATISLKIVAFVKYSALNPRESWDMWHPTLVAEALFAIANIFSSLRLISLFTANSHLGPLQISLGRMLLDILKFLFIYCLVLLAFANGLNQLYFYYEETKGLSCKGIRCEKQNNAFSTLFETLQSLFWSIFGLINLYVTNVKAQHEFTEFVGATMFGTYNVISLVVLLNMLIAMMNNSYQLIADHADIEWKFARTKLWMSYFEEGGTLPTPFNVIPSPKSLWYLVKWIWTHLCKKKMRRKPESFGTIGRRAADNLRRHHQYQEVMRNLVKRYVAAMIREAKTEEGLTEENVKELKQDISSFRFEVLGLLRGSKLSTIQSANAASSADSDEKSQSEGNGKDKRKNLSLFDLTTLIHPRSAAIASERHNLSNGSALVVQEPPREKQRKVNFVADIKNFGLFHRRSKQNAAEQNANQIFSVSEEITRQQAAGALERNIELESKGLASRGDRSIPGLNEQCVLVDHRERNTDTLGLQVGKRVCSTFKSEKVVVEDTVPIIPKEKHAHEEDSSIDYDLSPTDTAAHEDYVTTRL

cells [11] = format: functional, cell-based
cells [12] = format: functional, cell-based; remark: listed apart in the source

T1 sequence (P08684 whole entry): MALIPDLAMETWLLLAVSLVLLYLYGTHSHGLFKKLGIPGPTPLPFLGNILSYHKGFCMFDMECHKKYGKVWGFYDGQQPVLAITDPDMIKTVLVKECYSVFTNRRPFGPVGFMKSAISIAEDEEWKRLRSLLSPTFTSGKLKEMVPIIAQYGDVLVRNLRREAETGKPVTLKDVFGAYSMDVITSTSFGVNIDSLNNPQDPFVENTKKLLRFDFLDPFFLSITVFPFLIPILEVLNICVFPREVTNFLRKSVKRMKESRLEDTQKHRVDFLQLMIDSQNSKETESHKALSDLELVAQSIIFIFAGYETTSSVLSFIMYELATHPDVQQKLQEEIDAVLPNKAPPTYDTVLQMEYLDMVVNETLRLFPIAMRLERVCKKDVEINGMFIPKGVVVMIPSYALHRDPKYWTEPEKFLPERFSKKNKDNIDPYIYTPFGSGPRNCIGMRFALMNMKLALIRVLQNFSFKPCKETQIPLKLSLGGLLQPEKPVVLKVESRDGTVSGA
Induced myeloid leukemia cell differentiation protein Mcl-1, sequence (Q07820 whole entry): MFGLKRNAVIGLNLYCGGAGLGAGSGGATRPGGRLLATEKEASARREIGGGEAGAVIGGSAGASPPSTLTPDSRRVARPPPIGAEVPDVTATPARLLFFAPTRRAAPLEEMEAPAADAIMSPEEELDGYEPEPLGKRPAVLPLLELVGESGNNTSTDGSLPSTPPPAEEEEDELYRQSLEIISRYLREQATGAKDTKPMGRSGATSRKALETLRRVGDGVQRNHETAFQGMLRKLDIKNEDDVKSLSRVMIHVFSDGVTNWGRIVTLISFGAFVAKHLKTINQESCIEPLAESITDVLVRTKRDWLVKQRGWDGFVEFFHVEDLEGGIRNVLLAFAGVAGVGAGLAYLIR
Cytochrome P450 2C19, sequence (P33261 whole entry): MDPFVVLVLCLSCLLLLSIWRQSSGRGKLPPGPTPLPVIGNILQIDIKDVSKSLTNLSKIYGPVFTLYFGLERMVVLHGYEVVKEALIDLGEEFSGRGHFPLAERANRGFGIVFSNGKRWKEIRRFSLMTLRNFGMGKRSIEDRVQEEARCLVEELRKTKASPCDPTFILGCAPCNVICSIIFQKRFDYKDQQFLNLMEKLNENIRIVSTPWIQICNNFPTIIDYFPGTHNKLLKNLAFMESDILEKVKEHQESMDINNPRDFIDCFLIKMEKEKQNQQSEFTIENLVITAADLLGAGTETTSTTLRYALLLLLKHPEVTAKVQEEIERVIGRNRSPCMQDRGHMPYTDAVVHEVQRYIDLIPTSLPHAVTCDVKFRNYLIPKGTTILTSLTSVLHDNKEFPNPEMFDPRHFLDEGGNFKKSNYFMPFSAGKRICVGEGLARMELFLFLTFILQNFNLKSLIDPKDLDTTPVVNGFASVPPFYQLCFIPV
T2 sequence (Q00975 whole entry): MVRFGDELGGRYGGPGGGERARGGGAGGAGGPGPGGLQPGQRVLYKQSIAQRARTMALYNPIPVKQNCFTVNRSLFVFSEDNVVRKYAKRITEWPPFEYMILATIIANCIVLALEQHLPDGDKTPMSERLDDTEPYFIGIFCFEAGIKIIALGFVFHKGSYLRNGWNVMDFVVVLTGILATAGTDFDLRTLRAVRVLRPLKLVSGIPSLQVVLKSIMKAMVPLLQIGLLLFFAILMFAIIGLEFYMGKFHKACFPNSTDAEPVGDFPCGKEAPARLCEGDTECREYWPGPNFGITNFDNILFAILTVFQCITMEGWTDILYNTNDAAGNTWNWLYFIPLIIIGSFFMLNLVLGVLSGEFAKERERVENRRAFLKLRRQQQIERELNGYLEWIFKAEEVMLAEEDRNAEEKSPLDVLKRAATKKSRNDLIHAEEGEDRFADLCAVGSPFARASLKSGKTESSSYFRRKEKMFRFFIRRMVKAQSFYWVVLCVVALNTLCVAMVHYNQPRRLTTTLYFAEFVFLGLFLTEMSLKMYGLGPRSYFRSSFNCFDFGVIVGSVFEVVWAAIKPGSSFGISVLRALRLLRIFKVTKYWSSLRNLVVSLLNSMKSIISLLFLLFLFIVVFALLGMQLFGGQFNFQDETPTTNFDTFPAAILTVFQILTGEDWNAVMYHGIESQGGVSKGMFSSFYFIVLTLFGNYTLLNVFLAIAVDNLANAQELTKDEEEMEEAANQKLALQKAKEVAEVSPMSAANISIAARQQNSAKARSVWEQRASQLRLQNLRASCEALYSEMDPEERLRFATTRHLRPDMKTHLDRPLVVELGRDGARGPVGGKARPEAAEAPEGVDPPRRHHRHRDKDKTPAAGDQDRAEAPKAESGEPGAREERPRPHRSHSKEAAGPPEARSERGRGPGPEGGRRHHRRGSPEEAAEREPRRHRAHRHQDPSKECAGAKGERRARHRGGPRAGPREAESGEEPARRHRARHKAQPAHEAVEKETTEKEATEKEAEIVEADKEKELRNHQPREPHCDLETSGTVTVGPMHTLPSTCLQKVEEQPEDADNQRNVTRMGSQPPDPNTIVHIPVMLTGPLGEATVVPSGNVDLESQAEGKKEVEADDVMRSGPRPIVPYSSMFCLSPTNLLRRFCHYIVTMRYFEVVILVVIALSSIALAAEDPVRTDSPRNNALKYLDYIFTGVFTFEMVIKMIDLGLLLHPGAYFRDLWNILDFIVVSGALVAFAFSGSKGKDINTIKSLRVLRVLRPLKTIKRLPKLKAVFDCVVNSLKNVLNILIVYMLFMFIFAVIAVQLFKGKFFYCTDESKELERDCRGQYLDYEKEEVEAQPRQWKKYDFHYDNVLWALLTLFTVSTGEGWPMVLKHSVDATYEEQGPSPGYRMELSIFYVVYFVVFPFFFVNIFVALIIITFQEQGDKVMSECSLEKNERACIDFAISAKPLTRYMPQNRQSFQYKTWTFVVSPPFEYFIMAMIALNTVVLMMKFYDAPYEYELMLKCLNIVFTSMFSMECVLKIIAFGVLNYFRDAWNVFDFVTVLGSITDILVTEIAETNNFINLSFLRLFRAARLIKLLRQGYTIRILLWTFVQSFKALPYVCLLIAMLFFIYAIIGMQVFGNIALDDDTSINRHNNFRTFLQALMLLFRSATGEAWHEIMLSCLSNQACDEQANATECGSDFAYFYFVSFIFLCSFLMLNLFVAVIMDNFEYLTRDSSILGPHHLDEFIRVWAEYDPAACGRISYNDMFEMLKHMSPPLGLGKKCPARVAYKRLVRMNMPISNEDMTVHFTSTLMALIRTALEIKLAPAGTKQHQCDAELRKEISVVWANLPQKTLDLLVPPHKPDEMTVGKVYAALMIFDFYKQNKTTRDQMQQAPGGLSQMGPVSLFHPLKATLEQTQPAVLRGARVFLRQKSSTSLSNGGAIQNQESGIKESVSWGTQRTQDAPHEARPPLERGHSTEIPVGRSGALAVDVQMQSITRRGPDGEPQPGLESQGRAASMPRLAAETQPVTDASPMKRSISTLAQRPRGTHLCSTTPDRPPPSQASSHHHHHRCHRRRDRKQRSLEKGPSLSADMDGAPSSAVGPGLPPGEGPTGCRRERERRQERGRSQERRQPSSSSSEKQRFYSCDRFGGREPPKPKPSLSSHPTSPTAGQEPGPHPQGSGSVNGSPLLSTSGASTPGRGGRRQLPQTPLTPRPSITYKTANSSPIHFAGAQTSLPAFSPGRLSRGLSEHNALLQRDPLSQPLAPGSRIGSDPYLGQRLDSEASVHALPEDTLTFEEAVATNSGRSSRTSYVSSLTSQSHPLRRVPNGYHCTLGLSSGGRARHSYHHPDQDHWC
T2 sequence (Q02410 whole entry): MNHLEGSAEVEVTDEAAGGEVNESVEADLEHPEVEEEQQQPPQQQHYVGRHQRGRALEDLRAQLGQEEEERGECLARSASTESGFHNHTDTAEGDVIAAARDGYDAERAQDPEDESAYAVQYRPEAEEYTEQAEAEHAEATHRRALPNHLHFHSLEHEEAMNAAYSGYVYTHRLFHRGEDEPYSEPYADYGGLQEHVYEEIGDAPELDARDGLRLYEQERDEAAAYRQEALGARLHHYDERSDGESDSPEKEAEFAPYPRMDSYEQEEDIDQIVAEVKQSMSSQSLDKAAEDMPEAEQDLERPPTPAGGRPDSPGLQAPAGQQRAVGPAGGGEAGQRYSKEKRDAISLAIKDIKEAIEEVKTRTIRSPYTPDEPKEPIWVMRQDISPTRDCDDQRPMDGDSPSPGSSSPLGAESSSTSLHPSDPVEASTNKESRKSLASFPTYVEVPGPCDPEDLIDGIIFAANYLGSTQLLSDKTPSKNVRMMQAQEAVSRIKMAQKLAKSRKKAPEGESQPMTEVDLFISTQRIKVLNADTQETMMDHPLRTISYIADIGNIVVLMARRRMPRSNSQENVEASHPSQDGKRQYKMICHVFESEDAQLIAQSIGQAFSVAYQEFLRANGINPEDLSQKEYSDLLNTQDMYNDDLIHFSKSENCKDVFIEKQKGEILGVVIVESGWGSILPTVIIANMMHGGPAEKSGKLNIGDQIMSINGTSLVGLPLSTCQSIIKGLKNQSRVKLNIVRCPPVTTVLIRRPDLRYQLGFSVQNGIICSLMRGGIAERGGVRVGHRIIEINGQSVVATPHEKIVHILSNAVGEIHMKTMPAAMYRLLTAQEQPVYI
Cytochrome P450 2D6, sequence (P10635 whole entry): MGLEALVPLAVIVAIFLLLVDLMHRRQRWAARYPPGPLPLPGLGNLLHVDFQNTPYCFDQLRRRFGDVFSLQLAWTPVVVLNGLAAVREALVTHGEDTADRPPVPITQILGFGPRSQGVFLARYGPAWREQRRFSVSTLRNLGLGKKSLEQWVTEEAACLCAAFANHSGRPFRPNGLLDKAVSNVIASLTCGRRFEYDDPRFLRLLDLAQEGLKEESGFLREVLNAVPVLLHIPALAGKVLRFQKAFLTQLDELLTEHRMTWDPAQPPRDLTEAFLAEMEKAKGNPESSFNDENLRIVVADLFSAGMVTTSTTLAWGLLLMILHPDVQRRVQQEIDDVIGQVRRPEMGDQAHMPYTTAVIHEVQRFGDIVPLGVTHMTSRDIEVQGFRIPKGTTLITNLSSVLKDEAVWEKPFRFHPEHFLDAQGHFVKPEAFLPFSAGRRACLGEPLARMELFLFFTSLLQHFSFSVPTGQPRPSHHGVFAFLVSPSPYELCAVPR

Q: With `CC(=O)N1CC=CC1(C)C(=O)O` (centres undefined) as the compound, how does the AC50 (Cytochrome P450 3A4 [1]) read?
A: 20 µM (inconclusive)

Q: Which IC50 [2] does the source give for `CC(C)CCC(CCN1CCCC1)c1ccc2c(c1)OCO2` (centres undefined) here?
A: 6.38 µM (not active)

Q: Which CC50 (Vero) does the source give for `O=C(CC1C(=O)NCCN1C(=O)Nc1ccc(C(F)(F)F)cc1)Nc1ccc(F)cc1` (centres undefined) here?
A: > 25 µM (active)

Q: Which IC50 [3] does the source give for `Cc1cccn2c(=O)c(/C=N/O)c(Nc3ccccc3F)nc12` here?
A: 11.4 µM (active)

Q: What about the IC50 [4] of the same compound?
A: > 50 µM (inactive)

Q: With `COC1CC(C)C(OC)c2cc(O)cc(c2O)NC(=O)C(C)=CC=CC(C)C(OC(N)=O)C(C)=CC(C)C1OC` (centres undefined) as the compound, how does the CC50 (Vero) read?
A: 12.6 µM (active)

Q: For `Oc1c(Br)cc(/C=N/c2ccc3[nH]c(-c4ccccc4)nc3c2)c(O)c1Br`, which IC50 [2] is on record?
A: 1.49 µM (active)

Q: Which CC50 [5] does the source give for `CCOC(=O)c1c(N)sc(C(O)(C(F)(F)F)C(F)(F)F)c1-c1ccc(Cl)cc1` here?
A: 11.4 µM (active)

Q: And the EC50 [6]?
A: 1.96 µM (active)

Q: And the EC50 (Streptokinase A)?
A: 6.86 µM (active)

Q: What about the IC50 [7] of the same compound?
A: 13.3 µM (not active)

Q: What about the EC50 (Streptococcus) of the same compound?
A: 10.1 µM (active)

Q: Which AC50 (Cytochrome P450 2C19) does the source give for `Cc1cccnc1NC(=O)C12CCC(C)(C(=O)O1)C2(C)C` (centres undefined) here?
A: inconclusive

Q: What about the AC50 (Cytochrome P450 3A4 [8]) of the same compound?
A: inconclusive

Q: For `O=C(c1csnn1)N1CCC2(CC1)CN(C(c1ccccc1)c1ccccc1)C2`, which AC50 (Cytochrome P450 2C19; read-out: AC50) is on record?
A: 0.00631 µM (inconclusive)

Q: And the AC50 (Cytochrome P450 2D6)?
A: 12.6 µM (inconclusive)

Q: What about the AC50 (Cytochrome P450 2C9) of the same compound?
A: 15.8 µM (inconclusive)

Q: What about the AC50 (Cytochrome P450 3A4 [8]) of the same compound?
A: inconclusive

Q: With `Cc1ccc(NC2=NCC(Cc3ccc(Br)cc3)S2)cc1` (centres undefined) as the compound, how does the EC50 [6] read?
A: 6.42 µM (active)

Q: What about the EC50 (Streptokinase A) of the same compound?
A: > 150 µM (not active)

Q: And the IC50 [7]?
A: 5.89 µM (not active)

Q: What about the EC50 (Streptococcus) of the same compound?
A: 10.4 µM (active)

Q: And the AC50 [9]?
A: 6.43 µM (active)

Q: With `Cn1cc(CNCC2CCCO2)c(-c2ccc(Oc3ccccc3)cc2)n1` (centres undefined) as the compound, how does the EC50 [10] read?
A: 3.35 µM (active)

Q: With `COc1c(CC(=O)c2cc3c(cc2O)OC(C)(C)C(O)C3)ccc2c1C=CC(C)(C)O2` (centres undefined) [DIHYDROMUNDULETONE] as the compound, how does the AC50 (Cytochrome P450 3A4 [1]) read?
A: 25.1 µM (inconclusive)

Q: Which EC50 (cells [11]) does the source give for `O=C(c1ccc(-c2nnc(-c3ccccc3)o2)cc1)N1CCCCCC1` here?
A: > 350 µM (not active)

Q: What about the EC50 (cells [12]) of the same compound?
A: 5.78 µM (active)

Q: What about the IC50 [7] of the same compound?
A: 11 µM (not active)

Q: Which AC50 (Cytochrome P450 3A4 [8]) does the source give for `Cn1c(=O)c(-c2ccc(Cl)cc2)nc2cnc(Oc3ccccc3)nc21` here?
A: inconclusive
